Among the data in US7262212B2, “2,3-dihydro-6-nitroimidazo[2,1-b]oxazoles” (Otsuka Pharmaceutical Co., Ltd., priority 2002, dated 2007) are melting point values, retold here.

One may read the melting point as the temperature of the solid-liquid transition. In the case of `C[C@]1(COC(=O)N2CCN(c3ccc(OC(F)(F)F)cc3)CC2)Cn2cc([N+](=O)[O-])nc2O1`, the melting point was in the range of 168 to 169 °C.
The value for `C[C@]1(COC(=O)N2CCN(Cc3ccc(Cl)cc3)CC2)Cn2cc([N+](=O)[O-])nc2O1` was 161 to 163 °C.
The same measure for `C[C@]1(COC(=O)N2CCC(Oc3ccc(C(F)(F)F)cc3)CC2)Cn2cc([N+](=O)[O-])nc2O1`: 165 to 166 °C.
On to `CC1(COc2ccc(C3CCN(Cc4ccc(OC(F)(F)F)cc4)CC3)cc2)Cn2cc([N+](=O)[O-])nc2O1` (centres unmarked), for which the melting point lay within 160.6 to 161.1 °C.
The same measure for `CC(C)(C)OC(=O)c1ccc(NC(=O)N2CCC3(CC2)Cn2cc([N+](=O)[O-])nc2O3)cc1`: greater than 300 °C; for `C[C@]1(COc2ccc(N3CCN(c4ccc(OC(F)(F)F)cc4)CC3)cc2)Cn2cc([N+](=O)[O-])nc2O1`: 262.5 to 265 °C; for `C[C@]1(CN2CCC(N3CCN(c4ccc(OC(F)(F)F)cc4)CC3)CC2)Cn2cc([N+](=O)[O-])nc2O1`: 193 to 194 °C.
The value for `C[C@]1(CN2CCN(C3CCN(C(=O)c4ccc(OC(F)(F)F)cc4)CC3)CC2)Cn2cc([N+](=O)[O-])nc2O1` was 133 to 134 °C; that for `C[C@]1(CN2CCC(N3CCN(CC=Cc4ccc(OC(F)(F)F)cc4)CC3)CC2)Cn2cc([N+](=O)[O-])nc2O1` was 174 to 175 °C; that for `O=[N+]([O-])c1cn2c(n1)OC1(CCN(c3ccc(OC(F)(F)F)cc3)CC1)C2` was 235.9 to 236.8 °C (dec.).
On to `CCOC(=O)N1CCN(c2ccc(OC[C@@]3(C)Cn4cc([N+](=O)[O-])nc4O3)cc2)CC1`, for which the melting point lay within 210.5 to 212 °C.
Regarding `CC1(COCc2ccc(Oc3ccc(OC(F)(F)F)cc3)cc2)Cn2cc([N+](=O)[O-])nc2O1` (centres unmarked), the melting point was in the range of 107.9 to 109.3 °C.
On to `O=[N+]([O-])c1cn2c(n1)OC(COc1ccc(N3CCC(Oc4ccc(OC(F)(F)F)cc4)CC3)cc1)C2` (centres unmarked), for which the melting point was in the range of 173.2 to 177.3 °C.
The same measure for `C[C@]1(COc2ccc(C(=O)N3CCN(Cc4ccc(OC(F)(F)F)cc4)CC3)cc2)Cn2cc([N+](=O)[O-])nc2O1`: 155 to 156 °C; for `CN(CCOc1ccc(OC(F)(F)F)cc1)C[C@@]1(C)Cn2cc([N+](=O)[O-])nc2O1`: 112.5 to 115 °C.
The same measure for `C[C@]1(CN(CCOc2ccc(OC(F)(F)F)cc2)Cc2ccccc2)Cn2cc([N+](=O)[O-])nc2O1`: 96.5 to 97 °C; for `COc1ccc(CN(C)C[C@@]2(C)Cn3cc([N+](=O)[O-])nc3O2)cc1`: 144 to 147 °C; for `CC1(CNC(=O)OCc2ccc(F)cc2)Cn2cc([N+](=O)[O-])nc2O1` (centres unmarked): 200.4 to 202.1 °C.
In the case of `CNC(C1CCN(c2ccc(C#N)cc2)CC1)[C@]1(C)Cn2cc([N+](=O)[O-])nc2O1` (some centres unmarked), the melting point is 149 to 152 °C.
The value for `CNC(C1CCN(C(=O)OC(C)(C)C)CC1)[C@]1(C)Cn2cc([N+](=O)[O-])nc2O1` (some centres unmarked) was 138.5 to 140.3 °C.
The same measure for `CC(C)(C)OC(=O)NC1CCN(C[C@@]2(C)Cn3cc([N+](=O)[O-])nc3O2)CC1`: 158.5 to 160.7 °C; for `CC(C)(C)OC(=O)N1CCN(CC2Cn3cc([N+](=O)[O-])nc3O2)CC1` (centres unmarked): 185 to 188 °C (dec.); for `CC(C)(C)OC(=O)N1CCN(CCCC2(C)Cn3cc([N+](=O)[O-])nc3O2)CC1` (centres unmarked): 166 to 167 °C.
The same measure for `CC1(CN2CCN(C(=O)Cc3ccc(Cl)c(Cl)c3)CC2)Cn2cc([N+](=O)[O-])nc2O1` (centres unmarked): 189 to 191 °C; for `CC1(CN2CCN(C(=O)OCc3ccccc3)CC2)Cn2cc([N+](=O)[O-])nc2O1.Cl` (centres unmarked): 130.5 to 132.1 °C; for `O=C(OCc1ccc(C(F)(F)F)cc1)N1CCN(CC2Cn3cc([N+](=O)[O-])nc3O2)CC1` (centres unmarked): 120 to 122 °C.
With `O=[N+]([O-])c1cn2c(n1)OC(CN1CCN(c3nc4ccccc4o3)CC1)C2` (centres unmarked), the melting point is 206 to 209 °C (dec.).
The value for `C[C@]1(CO)Cn2cc([N+](=O)[O-])nc2O1` was 162 to 163 °C.
The value for `C[C@]1(CN2CCN(c3cccnc3)CC2)Cn2cc([N+](=O)[O-])nc2O1` was 145 to 147.7 °C; that for `C[C@]1(CN2CCN(C(=O)OCc3ccc(OC(F)(F)F)cc3)CC2)Cn2cc([N+](=O)[O-])nc2O1` was 139.5 to 140.5 °C; that for `C[C@]1(CN2CCN(Cc3ccc(C(F)(F)F)cc3)CC2)Cn2cc([N+](=O)[O-])nc2O1` was 110 to 112 °C.
`Cc1nc(-c2ccc(Cl)cc2)sc1CN1CCN(C[C@@]2(C)Cn3cc([N+](=O)[O-])nc3O2)CC1`: the melting point lay in the range of 174.3 to 175.5 °C.
The same measure for `CC1(CN2CCN(C(=O)Cc3ccccc3)CC2)Cn2cc([N+](=O)[O-])nc2O1` (centres unmarked): 175.2 to 175.9 °C; for `C[C@]1(CN2CCN(S(=O)(=O)CCCc3ccc(Cl)cc3)CC2)Cn2cc([N+](=O)[O-])nc2O1`: 150 to 151 °C.
The value for `C[C@]1(CN2CCN(S(=O)(=O)CCCCc3ccc(Cl)cc3)CC2)Cn2cc([N+](=O)[O-])nc2O1` was 176 to 177 °C.
The value for `CC1(CN2CCN(S(=O)(=O)CCc3ccc(Cl)cc3)CC2)Cn2cc([N+](=O)[O-])nc2O1` (centres unmarked) was 182 to 184 °C.
In turn, `C[C@]1(COc2nc3ccccc3o2)Cn2cc([N+](=O)[O-])nc2O1` yielded a melting point of 232 to 233 °C.
The same measure for `Cc1ccc(NC(=O)N2CCN(CC3(C)Cn4cc([N+](=O)[O-])nc4O3)CC2)cc1` (centres unmarked): 202 to 203 °C (dec.); for `CC1(Cn2nc(-c3ccc(-c4ccccc4)cc3)oc2=O)Cn2cc([N+](=O)[O-])nc2O1` (centres unmarked): 248 to 249 °C.
The same measure for `CC1(Cn2nc(CCc3ccc(Cl)cc3)oc2=O)Cn2cc([N+](=O)[O-])nc2O1` (centres unmarked): 139 to 140 °C; for `Cn1c(=O)n(CC2(C)Cn3cc([N+](=O)[O-])nc3O2)c2ccc(Cl)cc21` (centres unmarked): 261.3 to 263.3 °C.
For the compound `CC1(Cn2c(=O)n(C3CCN(C(=O)OCc4ccccc4)CC3)c3ccccc32)Cn2cc([N+](=O)[O-])nc2O1` (centres unmarked), the melting point was 181.7 to 184.6 °C.
The same measure for `CC1(CCc2nnnn2-c2ccc(Cl)cc2)Cn2cc([N+](=O)[O-])nc2O1` (centres unmarked): 198 to 200 °C; for `C[C@]1(CN2CCc3ccccc3C2)Cn2cc([N+](=O)[O-])nc2O1`: 153 to 155.3 °C; for `O=C(NCc1ccccc1)N1CCC2(CC1)Cn1cc([N+](=O)[O-])nc1O2`: 244 to 247 °C (dec.).
The value for `O=C(OCc1ccc(C(F)(F)F)cc1)N1CCN(C(=O)N2CCC3(CC2)Cn2cc([N+](=O)[O-])nc2O3)CC1` was 221 to 223 °C; that for `CN(C)c1ccc(NC(=O)N2CCC3(CC2)Cn2cc([N+](=O)[O-])nc2O3)cc1` was 244 to 247 °C (dec.).
`O=C(CN1CCN(C(=O)OCc2ccc(OC(F)(F)F)cc2)CC1)N1CCC2(CC1)Cn1cc([N+](=O)[O-])nc1O2`: the melting point was in the range of 137 to 139 °C.
The same measure for `CCN(CC)C(=O)OC[C@@]1(C)Cn2cc([N+](=O)[O-])nc2O1`: 196 to 197 °C; for `C[C@]1(COC(=O)N(c2ccc(Cl)cc2)c2ccc(Cl)cc2)Cn2cc([N+](=O)[O-])nc2O1`: 200 to 201 °C.
